Source: patent publication US8865124B2, “Probe reagent for measuring oxidative stress” (Japan Science and Technology Agency, priority 2008, dated 2014)
Peptide text beside a SMILES is read from it. * marks the point of attachment. Cbz = O=C(OCc1ccccc1)*

Legend:
[1] = tested on: HeLa cells expressing the probe reagent mKO2-Nrf2—100-T2A-Keap1; assay: Evaluation of a probe reagent by imaging of a cell (mKO2 fluorescence, time-lapse microscope); type: cell-based, human
Description: The prepared cDNA was transfected into HeLa cells that were cultured on a glass bottom dish by using FuGENE HD (manufactured by Roche Applied Science). The medium was replaced by the fresh medium 12 hours after the transfection. […] This microscope was equipped with a cooled CCD camera so that fluorescent images of a cell were able to be captured over time.
In order to verify that the constructed probe reagent responded correctly to oxidative stress as intended, diethylmaleate (DEM), which is an oxidative stress inducer, was added at a concentration of 100 μM, and the fluorescent intensity of mKO2 (ex; BP520-540HQ, em; BP555-600HQ) was measured. […] When ethanol, a solvent, was added at 0.1% as a control, the fluorescent intensity of mKO2 was not increased.
In order to verify that this probe reagent was degraded by a proteasome in a cell under conditions without being exposed to oxidative stress, an experiment using a proteasome inhibitor, MG132, was carried out. […] In contrast, after dimethylsulfoxide (DMSO), a solvent, was added at 0.1% as a control, the fluorescent intensity of mKO2 was not increased (FIG. 5).

[2] = tested on: mKO2-Nrf2 fusion molecule in HeLa cells; assay: Evaluation of a probe reagent by Western blotting using an anti-Nrf2 antibody; type: cell-based, human; conditions: MG132 10 μM versus 0.1% DMSO; FIG. 6
Description: First, to confirm that this probe reagent was separated into an mKO2-Nrf2 fusion molecule and Keap1 by the T2A peptide in a cell, the following experiments were performed. The cDNA, which was prepared using FuGENE® HD (Roche Applied Science Inc.), was transfected into HeLa cells cultured on a 35-mm dish. The medium was replaced by the fresh medium 12 hours after the transfection. After the 12 hours, DEM was added at a concentration of 100 μM, and ethanol was added at 0.1% as a control. The cells were cultured for further 8 hours. After that, Western blotting was conducted by using an anti-Nrf2 antibody (Santa Cruz Inc.). Both in the case of adding DEM and the case of adding ethanol, the band of the mKO2-Nrf2 fusion molecule was detected, but the band of the probe reagent comprising linked Keap1 was hardly observed.
Next, the fact that this probe reagent was degraded by a proteasome in a cell was confirmed by performing Western blotting. A proteasome inhibitor, MG132, was added at a concentration of 10 μM to HeLa cells that had been cultured in a similar manner. DMSO was added at 0.1% to control cells as well.

## CCOC(=O)/C=C\C(=O)OCC [DEM, diethylmaleate]
[1]; DEM added at 100 μM, HeLa cells transfected with probe cDNA, control 0.1% ethanol gave no increase, FIG. 3
  increase in the fluorescent intensity of mKO2: more than 10 times

## CC(C)C[C@@H](C=O)NC(=O)[C@H](CC(C)C)NC(=O)[C@H](CC(C)C)NC(=O)OCc1ccccc1 [MG132] (Cbz-Leu-Leu-Leu-aldehyde)
[1]; MG132 added at 10 μM, control 0.1% DMSO gave no increase, FIG. 5
  fluorescent intensity of mKO2: increase in the fluorescent intensity of mKO2 was observed
[2]
  band of the mKO2-Nrf2 fusion molecule (amount of probe reagent): strong band was detected compared to the case of adding DMSO

## probe reagent: fusion protein: fluorescent protein mKO2, Nrf2 amino acids 1 to 100, self-cleaved peptide T2A and Keap1; encoded by SEQ ID NO: 7
[1]; no oxidative stress loaded, 24 hours after medium change
  fluorescence of cells expressing the probe reagent before the experiment: only fluorescence at the background light level was detected
